Series [1] deals with T1, human 5-HT2C receptor (Homo sapiens, UniProt P28335).
T1 sequence (P28335 33-458): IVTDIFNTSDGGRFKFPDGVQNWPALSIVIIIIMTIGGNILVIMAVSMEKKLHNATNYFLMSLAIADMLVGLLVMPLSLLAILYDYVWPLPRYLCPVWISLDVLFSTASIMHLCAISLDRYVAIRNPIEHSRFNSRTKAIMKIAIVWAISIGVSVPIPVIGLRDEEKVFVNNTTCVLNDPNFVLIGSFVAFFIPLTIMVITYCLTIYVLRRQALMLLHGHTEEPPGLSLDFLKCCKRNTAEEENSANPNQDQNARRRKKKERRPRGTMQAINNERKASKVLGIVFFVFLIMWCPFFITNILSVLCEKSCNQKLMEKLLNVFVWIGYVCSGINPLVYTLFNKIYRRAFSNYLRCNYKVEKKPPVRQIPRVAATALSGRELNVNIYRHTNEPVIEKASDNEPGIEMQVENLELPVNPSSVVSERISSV
Nature of the series: 5-HT2C receptor-stimulated calcium mobilization (FLIPR) in CHO cells. In kind it is cell-based. The following applies: for Emax: CHO, read-out: 5-HT2C Function Emax (%). (Calcium flux is commonly read through the fluorescence of an indicator in the cells.)

For series [2], the target named is T2, human 5-hydroxytryptamine-2C (h-5-HT2C) receptor (Homo sapiens, UniProt P28335).
T2 sequence (P28335 33-458): T1 sequence (P28335 33-458)
Nature of the series: [125I]DOI binding to membranes of CHO cells expressing the h-5-HT2C receptor.

Where [3] appears, read: 5-HT2c Affinity KI (nM), displacement of [125I]DOI, CHO cell membranes.

Molecules are shown by their SMILES. Where a name gives a salt, the structure may show the parent alone. Read-outs that look alike come from different tables or passages of the source.

On to `c1cc2c3c(c1)[C@H]1CCCC[C@H]1N3CCNCC2` (single isomer, unassigned) (as salt: fumarate) [Example 47, (+)-(8bR*,12aR*)-2,3,4,5,8b,9,10,11,12,12a-Decahydro-1H-[1,4]diazocino[7,8,1-jk]carbazole], for which the melting point – broadly, the temperature of the solid-liquid transition – is 139 to 140 °C.

Consider `c1cc2c3c(c1)[C@H]1CCC[C@H]1N3CCNCC2` (single isomer, unassigned) (as salt: hydrochloride) [Example 45, (+)-(8bR*,11aR*)-2,3,4,5,9,10,11,11a-Octahydro-1H,8bH-cyclopenta[b][1,4]diazocino[7,8,1-hi]indole], for which the melting point was > 130 °C.

In turn, `CN1CCc2cccc3c4c(n(c23)CC1)CCC4` [Example 1, 3-Methyl-2,3,4,5,10,11-hexahydro-1H,9H-cyclopenta[b][1,4]diazocino[7,8,1-hi]indole] gave a melting point of 128 to 130 °C. In addition, in series [1], the EC50 (usually the concentration that produces a half-maximal response) came out at 0.048 µM and the Emax (in general, the greatest response seen or fitted, relative to the assay's reference) was 45%. Also, the inhibition constant Ki (as a rule, the equilibrium dissociation constant of an inhibitor or competing ligand from its target) in series [2] (setting [3]) was 35 nM.

Turning to `CN1CCc2cccc3c4c(n(c23)CC1)CCCC4` [Example 5], the melting point was in the range of 129 to 131 °C. For the same molecule, in series [1], the EC50 was determined as 0.068 µM and the Emax was 50%. The molecule further had a Ki in series [2] (setting [3]) of 10 nM.

`CN1CCc2cccc3c4c(n(c23)CC1)CCSC4` [Example 11, 3-Methyl-2,3,4,5,11,12-hexahydro-1H,9H-[1,4]diazocino[7,8,1-hi]thiopyrano[4,3-b]indole] yielded a melting point of 123 to 125 °C. The molecule also returned a Ki in series [2] (setting [3]) of 38 nM.

`CN1CCc2c(Cl)ccc3c4c(n(c23)CC1)CCC4` [Example 12, 6-Chloro-3-methyl-2,3,4,5,10,11-hexahydro-1H,9H-cyclopenta[b][1,4]diazocino[7,8,1-hi]indole] came in with a melting point of 138 to 140 °C. For the same molecule, the inhibitory constant (Ki) in series [2] (read-out: 5-HT2c Affinity KI) was 250 nM.

`CN1CCc2c(Cl)ccc3c4c(n(c23)CC1)CCCC4` [Example 13, 6-Chloro-3-methyl-2,3,4,5,9,10,11,12-octahydro-1H-[1,4]diazocino[7,8,1-jk]carbazole]: the melting point lay within 128 to 130 °C. The same molecule yielded an inhibition constant (Ki) in series [2] (setting [3]) of 34 nM.

On to `CN1CCc2c(Cl)ccc3c4c(n(c23)CC1)CCCCC4` [Example 14, 6-Chloro-3-methyl-2,3,4,5,10,11,12,13-octahydro-1H,9H-cyclohepta[b][1,4]diazocino[7,8,1-hi]indole], for which the melting point lay within 132 to 134 °C. In series [2] (read-out: 5-HT2c Affinity KI), the Ki was 250 nM.
